According to the NIST ThermoML archive (doi:10.1016/j.jct.2019.01.021):

Assay: molar heat capacity at constant pressure
Details: 101.33 kPa, Crystal 2, Small (less than 1 g) adiabatic calorimetry

N.NS(=O)(=O)O [ammonium sulfamate]
Details	molar heat capacity at constant pressure [J/K/mol]
5 K	0.003159
8.91 K	0.2228
9.15 K	0.2561
9.62 K	0.3293
9.86 K	0.3608
10 K	0.3908
10.36 K	0.4664
10.69 K	0.5138
11.01 K	0.5995
11.34 K	0.6668
11.67 K	0.7466
12.01 K	0.8356
12.34 K	0.9262
12.68 K	1.013
13.01 K	1.113
13.35 K	1.229
13.69 K	1.347
14.03 K	1.465
14.37 K	1.586
14.72 K	1.72
15 K	1.837
15.07 K	1.857
15.42 K	2
15.76 K	2.155
16.11 K	2.332
16.47 K	2.484
16.82 K	2.64
17.17 K	2.83
17.52 K	3.021
17.88 K	3.204
18.24 K	3.395
18.59 K	3.592
18.95 K	3.806
19.31 K	4.033
19.67 K	4.25
20 K	4.407
20.03 K	4.465
20.61 K	4.831
21.36 K	5.306
22.1 K	5.824
22.85 K	6.364
23.61 K	6.908
24.36 K	7.492
25 K	7.982
25.12 K	8.117
25.88 K	8.748
26.65 K	9.316
27.42 K	9.947
28.19 K	10.61
28.96 K	11.3
29.73 K	11.97
30 K	12.22
30.51 K	12.68
31.29 K	13.41
32.06 K	14.11
32.85 K	14.85
33.63 K	15.59
34.41 K	16.31
35 K	16.88
35.2 K	17.03
35.98 K	17.81
36.77 K	18.53
37.56 K	19.25
38.35 K	19.96
39.14 K	20.7
39.93 K	21.44
40 K	21.53
40.72 K	22.21
41.51 K	22.95
42.31 K	23.72
43.1 K	24.46
43.9 K	25.22
44.69 K	26
45 K	26.19
45.49 K	26.74
46.29 K	27.42
47.09 K	28.16
47.88 K	28.92
48.68 K	29.58
49.48 K	30.31
50 K	30.85
50.28 K	31.01
51.08 K	31.75
51.88 K	32.46
52.68 K	33.24
53.48 K	34.09
54.28 K	34.9
55 K	35.75
55.08 K	35.75
55.89 K	36.24
56.69 K	36.94
57.49 K	37.64
58.29 K	38.37
59.1 K	39.05
59.91 K	39.76
60 K	39.91
60.71 K	40.47
61.52 K	41.17
62.32 K	42.03
63.12 K	42.86
63.92 K	43.55
64.73 K	44.16
65 K	44.07
65.54 K	44.89
66.34 K	45.53
67.15 K	46.21
67.95 K	46.89
68.76 K	47.59
69.57 K	48.3
70 K	49.06
70.38 K	49.01
71.3 K	49.73
72.35 K	50.64
73.39 K	51.54
74.44 K	52.48
75 K	53.21
75.48 K	53.43
76.53 K	54.35
77.58 K	55.24
78.62 K	56.18
79.67 K	57.12
79.91 K	57.2
80 K	57.37
80.72 K	58.02
80.96 K	58.19
81.77 K	58.95
82.01 K	59.07
82.82 K	59.87
83.05 K	59.96
83.87 K	60.82
84.1 K	60.91
84.92 K	61.73
85.15 K	61.78
86.2 K	62.6
87.24 K	63.53
88.29 K	64.43
89.34 K	65.22
90 K	65.68
90.39 K	66.05
91.44 K	66.98
92.49 K	67.83
93.54 K	68.65
94.59 K	69.45
95.65 K	70.24
96.7 K	71.12
97.75 K	71.89
98.8 K	72.7
99.86 K	73.47
100 K	73.33
100.91 K	74.3
101.96 K	75.09
103.01 K	75.85
104.06 K	76.59
105.11 K	77.34
106.16 K	78.13
107.21 K	78.85
108.26 K	79.53
109.31 K	80.3
110 K	80.4
110.37 K	80.98
111.42 K	81.71
112.47 K	82.4
113.53 K	83.05
114.58 K	83.71
115.63 K	84.43
116.68 K	85.1
117.74 K	85.75
118.79 K	86.44
119.84 K	87.02
120 K	86.89
120.9 K	87.68
121.95 K	88.37
123 K	88.95
124.05 K	89.55
125.11 K	90.12
126.16 K	90.78
127.21 K	91.36
128.27 K	92.02
129.32 K	92.56
130 K	92.71
130.38 K	93.15
131.43 K	93.76
132.49 K	94.31
133.54 K	94.78
134.59 K	95.43
135.65 K	95.99
136.7 K	96.5
137.76 K	97.01
138.81 K	97.53
139.87 K	98.13
140 K	98.03
140.92 K	98.63
141.97 K	99.21
143.03 K	99.69
144.09 K	100.16
145.14 K	100.67
146.2 K	101.12
147.25 K	101.64
148.31 K	102.18
149.36 K	102.59
150 K	102.85
150.42 K	103.11
151.47 K	103.62
152.53 K	104.13
153.58 K	104.47
154.64 K	105.04
155.69 K	105.57
156.75 K	105.98
157.8 K	106.39
158.86 K	106.87
159.91 K	107.31
160 K	107.34
160.97 K	107.74
162.02 K	108.15
163.08 K	108.69
164.13 K	109.09
165.19 K	109.46
166.24 K	109.98
167.3 K	110.42
168.35 K	110.83
169.41 K	111.19
170 K	111.5
170.46 K	111.64
171.51 K	112.13
172.57 K	112.44
173.62 K	112.78
174.67 K	113.21
175.73 K	113.67
176.78 K	114.15
177.84 K	114.52
178.89 K	114.89
179.94 K	115.32
180 K	115.4
181 K	115.71
182.05 K	116.14
183.1 K	116.41
184.16 K	116.84
185.21 K	117.3
186.26 K	117.56
